PubChem BioAssay (NCI)
Several values for one entry are separate records, joined by “and”; a condition that tells them apart may be missing. Identical values can stand only once.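 Each compound was tested at five concentrations against cells in 96-well plates for 48 hours. GI50 = concentration required for 50% inhibition of growth. At the TGI there is no net growth.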

How the values were obtained:
Test in all cases: NCI tumour cell line growth inhibition, 48 h
A498 renal = system: A498 renal
ACHN renal = system: ACHN renal
EKVX NSCLC = system: EKVX NSCLC
NCI-H23 lung = system: NCI-H23 lung
SK-MEL-2 melanoma = system: SK-MEL-2 melanoma
SK-OV-3 ovarian = system: SK-OV-3 ovarian
SNB-75 CNS = system: SNB-75 CNS
UACC-257 melanoma = system: UACC-257 melanoma
SR leukemia = system: SR leukemia
HOP-62 NSCLC = system: HOP-62 NSCLC

| Structure (SMILES) | TGI (A498 renal) | TGI (ACHN renal) [µM] | TGI (EKVX NSCLC) [µM] | TGI (NCI-H23 lung) | TGI (SK-MEL-2 melanoma) | TGI (SK-OV-3 ovarian) [µM] | TGI (SNB-75 CNS) [µM] | TGI (UACC-257 melanoma) | TGI (SR leukemia) [µM] | GI50 (A498 renal) | GI50 (EKVX NSCLC) [µM] | GI50 (HOP-62 NSCLC) [µM] | TGI (HOP-62 NSCLC) [µM] | GI50 (NCI-H23 lung) [µM] | GI50 (SK-MEL-2 melanoma) | GI50 (SK-OV-3 ovarian) [µM] | GI50 (SNB-75 CNS) | GI50 (UACC-257 melanoma) | GI50 (ACHN renal) [µM] | GI50 (SR leukemia) [µM] |
| --- | --- | --- | --- | --- | --- | --- | --- | --- | --- | --- | --- | --- | --- | --- | --- | --- | --- | --- | --- | --- |
| O=c1c(O)cccn1C1OC(CO)C(O)C1O (stereo not drawn) | > 100 µM | > 100 | > 100 | > 100 µM | > 100 µM | > 100 | > 100 | > 100 µM |  |  |  |  |  |  |  |  |  |  |  |  |
| O=c1c2cc(Br)ccc2ncn1COCc1ccccc1 | > 100 µM | 74 | > 100 |  | > 100 µM | > 100 |  | > 100 µM | > 100 |  |  |  |  |  |  |  |  |  |  |  |
| CCC1(OC(=O)CN)C(=O)OCc2c1cc1n(c2=O)Cc2cc3cc4c(cc3nc2-1)OCO4 (stereo not drawn) | 0.0787 µM and 0.241 µM |  | 0.495 | 0.119 µM and 0.0337 µM | 3.15 µM and 1.07 µM | 0.174 |  | 0.281 µM and 0.603 µM |  | 0.0161 µM and 0.038 µM | 0.0106 | < 0.01 | < 0.01 | < 0.01 | 0.135 µM and 0.221 µM | < 0.01 | 0.0207 µM and < 0.01 µM | < 0.01 µM and 0.0484 µM |  |  |
| COC(=O)[C@@H]1C=C[C@H](NC(C)=O)C1 | > 100 µM |  |  | > 100 µM | > 100 µM | > 100 | > 100 | > 100 µM | > 100 |  |  |  | > 100 |  |  |  |  |  |  |  |
| O=[N+]([O-])c1ccc2nc(/C=C(\O)c3ccc(Cl)cc3)c(/C=C(\O)c3ccc(Cl)cc3)nc2c1 | > 100 µM | > 100 | > 100 | > 100 µM | > 100 µM |  | > 100 | > 100 µM | > 100 |  |  |  | > 100 |  |  |  |  |  |  |  |
| COc1cc2oc(-c3ccc4c(c3)OCO4)c(OC)c(=O)c2c(O)c1OC | > 50 µM | > 50 | > 50 | > 50 µM | > 50 µM | > 50 | > 50 | > 50 µM |  |  |  |  | > 50 |  |  |  |  |  |  |  |
| C=CCOC1(CC=C)C(=O)OC2C(O)COC21O (stereo not drawn) | > 100 µM | > 100 | > 100 | > 100 µM | > 100 µM | > 100 |  | > 100 µM | > 100 |  |  |  | > 100 |  |  |  |  |  |  |  |
| CC(C)(C)C(=O)N1CCN(C=O)C1=S | 80.8 µM | > 100 | > 100 | > 100 µM | > 100 µM | > 100 | 90.6 | > 100 µM |  |  |  |  | > 100 |  |  |  |  |  |  |  |
| Cn1c(=O)n(CC2CS2)c2ccccc21 (stereo not drawn) |  | > 100 | > 100 |  | > 100 µM | > 100 | > 100 |  | > 100 |  |  |  | > 100 |  |  |  |  |  |  |  |
| COc1ccc(OC)c(C[P+](c2ccccc2)(c2ccccc2)c2ccccc2)c1 | 23.5 µM | > 64.2 | > 94.6 | 11.8 µM |  | 11 | 22.2 | 14.4 µM | 6.07 |  |  |  | 22.2 |  |  |  |  |  |  |  |
| CC(=Nc1cc(Cl)cc(Cl)c1)c1ccncc1 | > 100 µM | > 100 | > 100 | > 100 µM | > 100 µM | > 100 | > 100 | > 100 µM |  |  |  |  | > 100 |  |  |  |  |  |  |  |
| C/C(=N/NC(=S)N1CCN(C(=S)N/N=C(/C)c2ccccn2)CC1)c1ccccn1 | > 58.6 µM | > 44.1 | > 100 | > 81.9 µM | > 100 µM | > 100 | > 77.6 | > 100 µM |  |  |  |  | > 67.9 |  |  |  |  |  |  |  |
| CC1CN=C(c2ccc(CN3CCC(C4CCN(Cc5ccc(C6=NCC(C)N6)cc5)CC4)CC3)cc2)N1 (stereo not drawn) | 80.6 µM | 75.9 | 47.2 | 84.7 µM | 36 µM | 53.9 | 31.1 | 52.4 µM |  |  |  |  | 30.9 |  |  |  |  |  |  |  |
| N#C/C(C(=O)Nc1ccccc1)=C(/N)N1CCCCC1 |  | > 100 | > 100 | > 100 µM | > 100 µM | > 100 | > 100 | > 100 µM | > 100 |  |  |  | > 100 |  |  |  |  |  |  |  |
| CC(=O)NC(=O)NC1=NCCC(=O)N1CCc1c[nH]c2ccccc12 | > 100 µM | > 100 | > 100 | > 100 µM | > 100 µM | > 100 |  | > 100 µM |  |  |  |  | > 100 |  |  |  |  |  |  |  |
| Cc1nc(Nc2nc3ccccc3[nH]2)nc(Cl)c1CCCl | > 100 µM | > 100 | > 100 | > 100 µM | > 100 µM |  | > 100 | > 100 µM | > 100 |  |  |  |  |  |  |  |  |  |  |  |
| C=CCc1ccccc1C1CC2(C(=O)OC)OC1C(C(=O)OC)=C2C(=O)OC (stereo not drawn) | > 10 µM | > 10 | > 10 | > 10 µM | > 10 µM | > 10 |  | > 10 µM | > 10 |  |  |  | > 10 |  |  |  |  |  |  |  |
| O=C1c2ccccc2C(=O)c2nn(N=P(CP(=Nn3nc4c(n3)C(=O)c3ccccc3C4=O)(c3ccccc3)c3ccccc3)(c3ccccc3)c3ccccc3)nc21 | > 100 µM | > 100 | > 100 | > 100 µM | > 100 µM | > 100 |  | > 100 µM | > 100 |  |  |  | > 100 |  |  |  |  |  |  |  |
| O=[N+]([O-])c1ccc2c(c1)n1c(N3CCCC3)[n+]3ccccc3c1c1c3cccc[n+]3c(N3CCCC3)n21 | > 100 µM |  | > 100 | > 100 µM | > 100 µM |  | > 100 | > 100 µM | > 100 |  |  |  |  |  |  |  |  |  |  |  |
| Cc1ccc(/C=N\NC(=O)c2ccncc2)s1 | > 100 µM | > 100 | > 100 | > 100 µM | > 100 µM | > 100 |  | > 100 µM | > 100 |  |  |  | > 100 |  |  |  |  |  |  |  |
| CN(C)CCNC(=O)c1cc(NC(=O)c2cc(NC(=O)CC/C=C3/[C@@H]4CC[C@H]3N=N4)cn2C)cn1C | > 100 µM | > 100 | > 100 | > 100 µM | > 100 µM |  | > 100 | > 100 µM | > 100 |  |  |  | > 100 |  |  |  |  |  |  |  |
| CC1(C)[C@@H](OC(N)=O)C=C[C@]2(CO)[C@H]3CC[C@]4(C)[C@@H](c5ccc(=O)oc5)[C@@H](Cl)C[C@]4(O)C3=CC[C@@H]12 | 0.0557 µM | 0.00262 | 0.00806 | 0.0113 µM | 0.0294 µM | 0.0306 |  | 0.029 µM | 0.0146 | 0.0122 µM | < 0.0001 | < 0.0001 | 0.00316 | < 0.0001 | 0.00402 µM | 0.00474 |  | 0.012 µM | < 0.0001 | 0.00232 |
